Results published in US8778926B2, “Compounds, pharmaceutical compositions and uses thereof” (Boehringer Ingelheim International GmbH, priority 2011, dated 2014).

Biological target: T1, human GPR119 (Homo sapiens, UniProt Q8TDV5)
T1 construct: expression vector for human GPR119 cDNA (Acc. No. NP_848566); expressed in transfected cells
T1 sequence (Q8TDV5 1-335): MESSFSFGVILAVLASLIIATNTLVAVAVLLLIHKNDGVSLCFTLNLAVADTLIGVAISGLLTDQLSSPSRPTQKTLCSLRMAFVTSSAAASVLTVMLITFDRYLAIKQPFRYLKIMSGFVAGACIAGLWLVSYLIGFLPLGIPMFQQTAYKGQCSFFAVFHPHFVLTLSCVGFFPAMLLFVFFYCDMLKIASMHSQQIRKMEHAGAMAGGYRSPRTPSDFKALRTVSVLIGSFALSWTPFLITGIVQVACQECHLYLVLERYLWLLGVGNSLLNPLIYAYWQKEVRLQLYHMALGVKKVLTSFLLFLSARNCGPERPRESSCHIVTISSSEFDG
Experiment: AlphaScreen cAMP assay, activation of GPR119 in Min-6/hGPR119 cells
Assay type: cell-based
Settings: MIN6 cells stably transfected with human GPR119; intracellular cAMP; 45 minutes incubation at room temperature
Protocol: The compounds of formula I according to the invention modulate the activity of the G-protein-coupled receptor GPR119. The effect of the compounds on the activation of GPR119 and on the stimulation of intracellular cAMP concentration is determined using the AlphaScreen cAMP Assay Kit (Cat. No. #6760625R) made by PerkinElmer.
MIN6 cells [Miyazaki J et al. Endocrinology. 1990 July; 127(1):126-32] are stably transfected with an expression vector for human GPR119 cDNA (Acc. No. NP_848566). Min-6/hGPR119 cells are cultured in DMEM, 10% FBS, 500 μM β-mercaptoethanol, 0.3 mg/mL Geniticin, 2 mM GlutaMAX at 37° C. 5% CO2. For the assay, the cells are seeded in Optiplates (white, 384-well, 160 W— barcoded, TC, sterile with lid, Cat. No. #6007688 (Perkin Elmer); 10000 cells/well; 50 μl). The plates covered with lids are then incubated for 24 hours at 37° C./5% CO2. After the medium is aspirated from the wells completely, 10 μl of the test compound are added, the compounds are diluted using stimulating buffer (140 mM NaCl, 3.6 mM KCl, 0.5 mM NaH2PO4, 0.5 mM MgSO4, 1.5 mM CaCl2, 10 mM Hepes, 5 mM NaHCO3; pH 7.4. 0.5 mM IBMX and 0.1% BSA, the final DMSO concentration is 1%). After 45 minutes incubation at room temperature (approx. 20° C.), the cAMP concentrations are determined using the AlphaScreen cAMP Assay Kit (Cat. No. #6760625R from PerkinElmer).

Structure (SMILES)	EC50 [nM]
CCc1cnc(N2CCC(C3Cc4cc(-c5ccc(C(=O)NCCC(C)O)cc5)ccc4O3)CC2)nc1 (stereo not drawn) [Example 66]	63
CCc1cnc(N2CCC(C3Cc4cc(-c5ccc(C(=O)NCC#N)cc5)ccc4O3)CC2)nc1 (stereo not drawn) [Example 67]	141
CCc1cnc(N2CCC(C3Cc4cc(-c5ccc(C(=O)N6CCC(C)(O)C6)cc5)ccc4O3)CC2)nc1 (stereo not drawn) [Example 68]	60
CCc1cnc(N2CCC(C3Cc4cc(-c5ccc(C(=O)N6CCC(OC)CC6)cc5)ccc4O3)CC2)nc1 (stereo not drawn) [Example 69]	48
CCc1cnc(N2CCC(C3Cc4cc(-c5ccc(C(=O)N(C)CC#N)cc5)ccc4O3)CC2)nc1 (stereo not drawn) [Example 71]	16
CCc1cnc(N2CCC(C3Cc4cc(-c5ccc(C(=O)NCCC(C)(C)O)cc5)ccc4O3)CC2)nc1 (stereo not drawn) [Example 75]	81
CCc1cnc(N2CCC(C3Cc4cc(-c5ccc(C(=O)NCC6COCCO6)cc5)ccc4O3)CC2)nc1 (stereo not drawn) [Example 77]	19
CCc1cnc(N2CCC(C3Cc4cc(-c5ccc(C(=O)N(C)CCO)cc5)ccc4O3)CC2)nc1 (stereo not drawn) [Example 78]	39

Continued, values first:

EC50 [nM]	Structure (SMILES)
112	CCc1cnc(N2CCC(C3Cc4cc(-c5ccc(C(=O)NCC(C)(C)CO)cc5)ccc4O3)CC2)nc1 (stereo not drawn) [Example 63]
33	CCc1cnc(N2CCC(C3Cc4cc(-c5ccc(C(=O)NCc6cocn6)cc5)ccc4O3)CC2)nc1 (stereo not drawn) [Example 64]
108	CCc1cnc(N2CCC(C3Cc4cc(-c5ccc(C(=O)N6CCC(O)C6)cc5)ccc4O3)CC2)nc1 (stereo not drawn) [Example 70]
12	CCc1cnc(N2CCC(C3Cc4cc(-c5ccc(C(=O)NCC6CCCO6)cc5)ccc4O3)CC2)nc1 (stereo not drawn) [Example 72]
19	CCc1cnc(N2CCC(C3Cc4cc(-c5ccc(C(=O)NCc6ccccn6)cc5)ccc4O3)CC2)nc1 (stereo not drawn) [Example 73]
52	CCc1cnc(N2CCC(C3Cc4cc(-c5ccc(C(=O)NCC(C)O)cc5)ccc4O3)CC2)nc1 (stereo not drawn) [Example 74]
59	CCc1cnc(N2CCC(C3Cc4cc(-c5ccc(C(=O)N6CC(OC)C6)cc5)ccc4O3)CC2)nc1 (stereo not drawn) [Example 76]
